Data from patent US4209612A, “Fortimicin factors KF and KG and process for production thereof” (Abbott Laboratories, priority 1977, dated 1980).
Converted amounts (≈) assume the structure as drawn. “Also recorded” adds a separate entry of the source.

Columns and labels:
[1] = system: Bacillus subtilis No. 10707; assay: Antibacterial activity of the preparate (units/mg), paper disc method; format: cell-based
Procedure: After the completion of fermentation, the culture liquor is adjusted to pH 2.5 with concentrated sulfuric acid and is stirred for 30 minutes. Thereafter, about 7 kg of a filter aid, Radiolite No. 600 (product of Showa Kagaku Kogyo Co., Ltd.) is added to the culture liquor and the microbial cells are removed by filtration. The filtrate is adjusted to pH 7.5 by the addition of 6 N sodium hydroxide. The resulting filtrate is passed through a column packed with about 20 L. of a cation exchange resin, Amberlite IRC-50 (ammonia form). The active principles are adsorbed on the resin. After the resin is washed with water, elution of the active principles is carried out with 1 N aqueous ammonia. The eluate is subjected to determination of activity by a paper disc method using an agar plate of Bacillus subtilis No. 10707. Fractions showing activity are combined and concentrated under reduced pressure to about 1 L. The concentrate is passed through a column packed with 500 ml of an anion exchange resin, Dowex 1×2 (OH form) and then about 2 L. of water is passed through the column. In this manner, impurities are removed and the active principles are eluted with water. The active fractions are combined and concentrated under reduced pressure to about 100 ml. The concentrate is then passed through a column packed with about 50 ml of active carbon powder. The active principles are adsorbed on the active carbon. The column is washed with water. The effluent and washings are discarded. Elution is then carried out with 0.2 N sulfuric acid. The eluate is subjected to determination of activity by a paper disc method using Bacillus subtilis No. 10707. The active fractions are combined and passed through a column of an anion exchange resin, Dowex 44 (OH form) and elution of the active principles is carried out with water. The active fractions are combined and concentrated to about 60 ml. The concentrate is then freeze-dried to obtain a crude powder of Fortimicin complex. The yield of the crude powder is about 40 g.
(§1) The powder is charged over about 500 ml of silica gel in a glass column to form a uniform, thin layer. The silica gel is previously suspended in a mixed solvent of chloroform, ethanol, concentrated aqueous ammonia and acetone (2:2:1:2 by volume), and packed in the glass column to form a tight, uniform layer. The column is then thoroughly washed with the same solvent. After the crude powder is charged, the solvent having the same composition as described above is poured gradually into the column from the top and thereafter elution is carried out continuously at a flow rate of 50 ml/hour. The eluate is recovered in 20 ml fractions and the activity of each of the fractions is determined by a paper disc method using Bacillus subtilis No. 10707. First, Fortimicin KF is eluted followed by Fortimicin A and Fortimicin D. The active fractions are subjected to thin layer chromatography. The fractions containing Fortimicin KF are collected and concentrated under reduced pressure to remove the solvent.
The residue is dissolved in a small amount of water and then the solution is freeze-dried to obtain about 2 g of a purified preparate of the free base of Fortimicin KF.
as §1, with “This powder” for “The powder”, “the” for “the crude”, “10707. […]” for “10707. First, Fortimicin KF is eluted followed by Fortimicin A and Fortimicin D. The active fractions are subjected to thin layer chromatography. The fractions containing Fortimicin KF are collected and concentrated under reduced pressure to remove the solvent.”

[2] = system: Gram-positive and Gram-negative bacteria; assay: Antibacterial spectrum (overall); format: cell-based; details: in words
Source text: (§2) In the following Table 4, the antibacterial spectra of Fortimicin KF and Fortimicin KG against various microorganisms are set forth.
(§3) (Minimum Inhibitory Concentration, γ/ml measured by
(§4) agar dilution method at pH 8.0)

[3] = Solubility of the free base; format: physicochemical; details: for solubility in organic solvents / solubility in ethanol and acetone / solubility in methanol / solubility in water: free base; for solubility in organic solvents: chloroform, benzene, ethyl acetate, butyl acetate, ether, butanol, petroleum ether, n-hexane
[4] = system: Klebsiella pneumoniae ATCC 10031; assay: Minimum inhibitory concentration, agar dilution method at pH 8.0; format: cell-based; details: ATCC10031
Source text: as §2, §3, §4

[5] = system: Proteus vulgaris ATCC 6897; assay: as above; format: cell-based; details: ATCC6897
Source text: as §2, §3, §4

Escherichia coli ATCC 26 = assay: as above; format: cell-based; details: ATCC26
Source text: as §2, §3, §4

[6] = system: Shigella sonnei ATCC 9290; assay: as above; format: cell-based; details: ATCC9290
Source text: as §2, §3, §4

[7] = system: Staphylococcus aureus ATCC 6538P; assay: as above; format: cell-based; details: ATCC6538P
Source text: as §2, §3, §4

[8] = system: Salmonella typhosa ATCC 9992; assay: as above; format: cell-based; details: Salmonella enterica
Source text: as §2, §3, §4

[9] = system: Bacillus subtilis No. 10707; assay: as above; format: cell-based
Source text: as §2, §3, §4

[10] = Example 3, before cellulose column chromatography
[11] = Example 3, purified preparate of the free base after cellulose column chromatography
[12] = purified preparate of the free base, Examples 1 and 2 (1 mg of a pure preparate defined as 1000 units)

| Structure (SMILES) | activity [1, 10] | activity [1, 11] | activity ([1]; Example 4) | activity [1, 12] | antibacterial activity [2] | antibacterial activity ([2]; listed as KG) | solubility in organic solvents [3] | solubility in ethanol and acetone [3] | solubility in methanol [3] | solubility in water [3] | solubility in the ordinary organic solvents [3] | MIC [4] | MIC [5] | MIC (Escherichia coli ATCC 26) | MIC [6] | MIC [7] | MIC [8] | MIC [9] | antibacterial activity ([2]; listed as KF) |
| --- | --- | --- | --- | --- | --- | --- | --- | --- | --- | --- | --- | --- | --- | --- | --- | --- | --- | --- | --- |
| CNC1C(O)C(OC2OC(C(C)N)=CCC2N)C(N)C(O)C1OC (stereo not drawn) [Fortimicin KG] | 860 units/mg | 980 units/mg | 985 units/mg | about 970 units/mg | strong antibacterial activity against a broad range of Gram-positive and Gram-negative bacteria | broad antibacterial activity | insoluble | slightly soluble | soluble | readily soluble; also recorded: very soluble | poorly soluble | 4.5 µg/mL (≈ 13 µM) | 4.5 µg/mL (≈ 13 µM) | 4.5 µg/mL (≈ 13 µM) | 9 µg/mL (≈ 26 µM) | 1.1 µg/mL (≈ 3.18 µM) | 2.3 µg/mL (≈ 6.64 µM) | 4.5 µg/mL (≈ 13 µM) |  |
| CNC1C(O)C(OC2OC(CN)=CCC2N)C(N)C(O)C1OC (stereo not drawn) [Fortimicin KF] | 860 units/mg | 980 units/mg | 985 units/mg | about 970 units/mg | strong antibacterial activity against a broad range of Gram-positive and Gram-negative bacteria |  | insoluble | slightly soluble | soluble | readily soluble; also recorded: very soluble | poorly soluble | 4.2 µg/mL (≈ 12.6 µM) | 4.2 µg/mL (≈ 12.6 µM) | 4.2 µg/mL (≈ 12.6 µM) | 8.4 µg/mL (≈ 25.3 µM) | 2.1 µg/mL (≈ 6.32 µM) | 4.2 µg/mL (≈ 12.6 µM) | 4.2 µg/mL (≈ 12.6 µM) | broad antibacterial activity |
